# Read-outs that look alike come from different tables or passages of the source. Non-standard residues stand in square brackets, D forms with d. Residues, ends and D or L forms follow the SMILES beside them. *: point of attachment. Sta = CC(C)C[C@H](N)[C@@H](O)CC(=O)O; Isovaleryl = CC(C)CC(=O)*
# How the values were obtained:
# [1] = tested on: C. albicans ATCC 32354; assay: Mortality after intravenous challenge; assay type: in vivo, mice
# Method: Female Swiss Webster mice (n=10 per treatment group) were challenged by tail vein injection with 10^6 c.f.u. Candida albicans ATCC 32354 in 0.2 ml saline and mortality was monitored over the following 14 days. Three hr prior to challenge with candida, and on days 1 to 5 post challenge with candida, mice also received one of the following compounds (i.p. in saline): saline alone; 0.6 mgKg^-1 pepstatin A, or 1 mgKg^-1 amphotericin B. Challenge inoculum containing C. albicans was prepared in the same manner as used for airway challenge experiments except that it was adjusted to a final A660nm of 2.0.
# [2] = tested on: C. albicans ATCC 32354; assay: Survival after lethal airway (intranasal) challenge in immunosuppressed mice; assay type: in vivo; settings: for ED50: Candida albicans, ATCC32354, ip, i.p. daily days 0-4, neutropenic mice, intranasal challenge, read-out: EC50 (survival, airway challenge)
# Text: (§1) To examine the role of the protease under conditions in which the challenge dose of C. albicans first has to cross the airway epithelium before it can disseminate, the following procedure was developed. To both mimic the immunosuppressed patient state and increase susceptibility of the test animals to C. albicans, mice were rendered neutropenic by treatment with cyclophosphamide, and received concurrent ciprofloxacin treatment to block opportunistic infection by endogenous gram negative flora.
# (§2) Challenge inoculum was prepared by streaking Candida albicans (ATCC 32354) onto Sabouraud dextrose agar from a frozen glycerol stock and incubating overnight at 37° C. Five hours before challenge, the culture was re-streaked onto four Sabouraud dextrose agar slants and incubated (4 h. 37° C.). The culture was then washed from the agar slants with sterile saline, resuspended in fresh saline to achieve an A660nm of 0.2, and kept on ice until used. Fifty μl of a 10^-4 dilution of this challenge stock was plated to determine retrospectively the exact challenge dose in c.f.u. Female Swiss Webster mice (Charles River Breeding Laboratories, Inc., Wilmington, Mass., approx. 23 g, ten mice per group) received 125 mgKg^-1 cyclophosphamide i.p. in 0.2 ml of saline on days -5 and -3, 0, 2 and 4 of the study. On day 0, mice were anesthetized with 80 mgKg^-1 sodium pentobarbital i.p. and challenged intranasally with either 2.5×10^5 c.f.u. in 50 μl of saline or 50 μl of saline only (toxicity controls). On each of days 1 to 4 mice also received 50 mgKg^-1 Ciprofloxacin (i.p. in WFI/5% (w/v) glucose) to prevent bacterial infection in the immunocompromised mice. On days 0 to 4, groups of mice (n=10) received one of the following daily treatments (0.1 ml i.p.): saline, amphotericin B (0.1 to 1.0 mgKg^-1); and pepstatin A (0.06 to 6.0 mgKg^-1). Pepstatin A was dissolved in DMSO at 13.8 mgml^-1 and diluted 1:10 in saline for the 6 mgKg^-1 dose. Lower doses were diluted in normal saline serially from the 6 mgKg^-1 dose. Stock amphotericin B (5 mg/ml in WFI) was diluted in WFI containing 5% glucose. Treatment with drug on day zero was performed three hours prior to airway challenge with C. albicans. Survival was monitored for fifteen days following challenge. Toxicity controls were weighed daily over the duration of treatment. Animals from parallel groups (n=10) of mice were sacrificed at various stages and used to determine organ burdens and histopathology. Organ burdens were determined in parallel in 3 mice from parallel groups that were sacrificed on days 2, 4, and 17. Mice were anesthetized with sodium pentobarbital (80 mgKg^-1), bled by cardiac puncture, and then given a lethal dose of sodium pentobarbital. The kidneys, spleen, liver, and lungs were removed, weighed, and homogenized in 10 ml sterile PBS. Each organ homogenate (including heart blood) was serially diluted, plated on Sabauroud dextrose agar and incubated overnight at 37° C. Resulting colonies were counted to derive c.f.u./gram wet weight of organ.
# [3] = tested on: C. albicans; assay: Control experiments with ciprofloxacin alone (data not shown); settings: ciprofloxacin by itself
# Text: as §1
# [4] = tested on: peak III secretory protease of C. albicans ATCC 32354; assay: Dns-ISEVNLDAEFR-amide cleavage by mono-Q peak III protease (HPLC, fluorimetric); assay type: biochemical; settings: peak III enzyme, read-out: I.C.50 Pepstatin
# Method: (§3) The proteases secreted by C. albicans ATCC 32354 also hydrolyzed the fluorescent peptide Dns-Ile-Ser-Glu-Val-Asn-Leu-Asp-Ala-Glu-Phe-Arg-amide (SEQ ID NO: 4), abbreviated Dns-ISEVNLDAEFR-amide. Aliquots of the protease-containing fractions recovered from mono-Q chromatography described in Example 1 (2 to 10 μl) were incubated with 30 μM final concentration of the fluorescent substrate Dns-ISEVNLDAEFR-amide at 37° C. in 60 μl 50 mM sodium citrate buffer of pH 4.4 for 15 minutes, after which reactions were terminated by addition of 50 μM pepstatin A in 33% v/v methanol to 10 μM final concentration, and set aside for HPLC analysis. […] Unconverted Dns-ISEVNLDAEFR-amide (RT=5.55 min) and fluorescent products eluting at 4.2 min (Dns-Ile-Ser-Glu-Val-Asn-Leu (SEQ ID NO: 5), and 3.0 min (unidentified), were resolved and detected fluorimetrically.
# (§4) The secretory aspartic proteases produced by other pathogenic C. albicans strains and Candida sp. are inhibitable by pepstatin A and are therefore of the aspartyl class. To determine if the peak I, II, or III protease activities secreted by ATCC 32354 were also of the aspartyl class, their susceptibility to inhibition by pepstatin A was determined. […]
# [5] = tested on: C. albicans; settings: administered prior to i.v. challenge with C. albicans; cited from earlier work
# [6] = tested on: peak I secretory protease of C. albicans ATCC 32354; assay: Dns-ISEVNLDAEFR-amide cleavage by mono-Q peak I protease (HPLC, fluorimetric); assay type: biochemical; settings: peak I enzyme
# Method: as §3, §4
# [7] = tested on: peak II secretory protease of C. albicans ATCC 32354; assay: Dns-ISEVNLDAEFR-amide cleavage by mono-Q peak II protease (HPLC, fluorimetric); assay type: biochemical
# Method: as §3, §4
# [8] = tested on: C. albicans ATCC 32354; assay: Formation of hyphae in culture (Gram stain, microscopy); assay type: cell-based; settings: YCB/BSA, 48 hours, 2 μM and above
# Method: Aliquots of cultures were removed after 48 hours, heat fixed on slides, and Gram stained (VWR Scientific, Inc., Boston, Mass.).
# [9] = tested on: C. albicans ATCC 32354; assay: Organ burdens (c.f.u.) after intranasal challenge in immunosuppressed mice; assay type: in vivo; design: C. albicans, kidney / C. albicans, lungs: scale not given here
# Method: as §2
# [10] = tested on: C. albicans ATCC 32354; assay: Growth of C. albicans in culture (A660nm); assay type: cell-based
# Method: To study the effects of pepstatin A on growth of C. albicans, 0.1 ml of an overnight C. albicans culture was used to inoculate 10 ml cultures of either 1) YCB/BSA, or 2) a YD medium (0.2% yeast extract, 2% glucose) that contained 40 mM ammonium chloride. Pepstatin A was included in the cultures at final concentrations ranging between 0 and 10 μM (administered from a 50 μM aqueous stock). Growth of cultures at 30° C. was monitored by following A660nm. The growth of ATCC 32354 in YCB/BSA was inhibited about 90% by 2 μM pepstatin A (table II). This effect of pepstatin was fungistatic as resuspension of arrested cells in fermentation medium devoid of pepstatin A restored cell growth. […] Since ammonium chloride both removes dependence on, and suppresses the production of the secretory acid proteases, the mechanism of pepstatin inhibition action is likely to involve protease inhibition.
# [11] = tested on: C. albicans ATCC 32354; assay: Histopathology of lung sections after airway challenge; assay type: in vivo, mice; settings: 0.06 and 0.6 mg/Kg^-1
# Method: For histopathology, mice from above described groups (two mice per group) were sacrificed on days 2 and 4 by administration of a lethal dose of sodium pentobarbitol. The lungs, liver, kidneys, and spleen were removed intact, embedded in paraffin, sectioned (5 μm), and stained with ammoniacal silver to visualize the Candida. Slides were stained by immersing in 4% periodic acid for 5 minutes, rinsing in distilled water five times, then immersing in a solution of ammoniacal silver (0.1% silver nitrate, 0.02% lithium hydroxide monohydrate) that had been heated by microwave (420 W for 1 min). Slides were microwaved in this solution for one minute then allowed to remain in the hot solution for one more minute before rinsing four times in distilled water and toning in 0.2% gold chloride for thirty seconds. Slides were then rinsed twice in distilled water, placed in 2% sodium thiosulfate for thirty seconds, then rinsed three times and dehydrated through graded alcohols. Finally, slides were cleared in 3-4 changes of xylene and mounted with Permount.
# [12] = 0.6 mg Kg^-1, 4 days post challenge
molecule,measurement,setting,value
C[C@@H]1[C@H](O)[C@@H](C)/C=C/C=C/C=C/C=C/C=C/C=C/C=C/[C@H](O[C@@H]2O[C@H](C)[C@@H](O)[C@H](N)[C@@H]2O)C[C@@H]2O[C@](O)(C[C@@H](O)C[C@@H](O)[C@H](O)CC[C@@H](O)C[C@@H](O)CC(=O)O[C@H]1C)C[C@H](O)[C@H]2C(=O)O [amphotericin B],"survival rate after 14 days, i.v. challenge","[1]; 1 mgKg^-1 i.p., 3 hr prior and days 1 to 5",70%
same,protection against lethal airway challenge,"[2]; 1 mgKg^-1 i.p. daily days 0-4, first dose 3 h before challenge",complete protection
same,ED50,[2],~0.1 mg/kg
O=C(O)c1cn(C2CC2)c2cc(N3CCNCC3)c(F)cc2c1=O [ciprofloxacin],effect on C. albicans in vitro or in vivo,[3],no effect
CC(C)CC(=O)N[C@H](C(=O)N[C@H](C(=O)N[C@@H](CC(C)C)[C@@H](O)CC(=O)N[C@@H](C)C(=O)N[C@@H](CC(C)C)[C@@H](O)CC(=O)O)C(C)C)C(C)C [pepstatin A] (Isovaleryl-VV[Sta]A[Sta]-OH),IC50,[4]; product eluting at 3.0 min,29 nM
same,IC50,[4]; product eluting at 4.2 min,36 nM
same,reduced mortality in a statistically significant fashion (neither/nor = did not),[5],neither
same,IC50,"[6]; product eluting at 3.0 min, 15 min pre-incubation, 1 hr reaction, pH 4.4, read-out: I.C.50 Pepstatin",9 nM
same,I.C.50 Pepstatin,"[6]; product eluting at 4.2 min, N. I. = no inhibition",N. I.
same,survival time post i.v. challenge,[1]; 0.6 mgKg^-1 i.p.,did not survive past day two
same,"protective effect, classical i.v. challenge protocol","[1]; 0.6 mgKg^-1 i.p., 3 hr prior and days 1 to 5",no protective effect
same,IC50,"[7]; peak II enzyme, product eluting at 4.2 min, read-out: I.C.50 Pepstatin",28 nM
same,formation of hyphae in cultures,[8],inhibited the formation of hyphae
same,"C. albicans, kidney","[9]; 0.06 mg Kg^-1, 4 days post challenge (0 dose 39 ± 18.4)",0.67 ± 0.15 c. f. u. g^-1 homogenized tiss
same,"C. albicans, lungs","[9]; 0.06 mg Kg^-1, 4 days post challenge (0 dose 4,540 ± 2,160)",0.58 ± 0.39 c. f. u. g^-1 homogenized tiss
same,"C. albicans, kidney",[9]; [12],0.49 ± 0.22 c. f. u. g^-1 homogenized tiss
same,"C. albicans, lungs",[9]; [12],0.13 ± 0.19 c. f. u. g^-1 homogenized tiss
same,c.f.u. recovered from the kidneys,[9]; all doses,a small number of c.f.u.'s were recovered
same,c.f.u. remaining in the lung tissue,[9]; intranasal challenge,dramatically reduced
same,dissemination to the spleen and liver,[9]; intranasal challenge,completely blocked dissemination
same,survival,"[2]; 0.6 mgKg^-1 i.p. daily days 0-4, airway challenge",100%
same,ED50,[2],~0.06 mg/kg
same,protective effect upon pretreating mice,"[2]; airway challenge, dose-dependent, 0.06 to 0.6 mgKg^-1",strong protective effect
same,inhibition at 2 µM,"[10]; Candida albicans, ATCC32354, YCB/BSA, 2 μM",~90%
same,nature of growth effect (resuspension without inhibitor restored growth),[10]; YCB/BSA,fungistatic
same,A660 nm,"[10]; YCB/BSA, 145 hours in culture, 2.0 μM (control 1.97)",0.18
same,A660 nm,"[10]; YCB/BSA, 145 hours in culture, 10.0 μM (control 1.97)",0.17
same,inhibitory effect on growth in YD containing ammonium chloride,"[10]; YD + 40 mM ammonium chloride, up to 10 μM",no significant inhibitory effects
same,A660 nm,"[10]; YD + NH4Cl, 145 hours in culture, 2.0 μM (control 2.97)",2.99
same,A660 nm,"[10]; YD + NH4Cl, 145 hours in culture, 10.0 μM (control 2.97)",3.20
same,growth of C. albicans and hyphae formation in the lungs (histopathology),[11],inhibited both the growth of C. albicans and hyphae formation
"1{92S,4S,5S)-5-[(2S)-3-(tert-Butylsulphonyl)-2-(1-naphthylmethyl)propanoyl]-(2R)N-(tert-butoxycarbonyl)-2-amino-2-[2-(1,3-dithiolan-2-yl)]ethanoyl]amino-6-cyclohexyl-4-hydroxy-2-(1-methyl)ethyl-hexanoyl}-s-isoleucinyl-2-yridylamide [compound X]",IC50,"[7]; peak II protease, read-out: I.C.50, in vitro activity of the peak II protease",110 nM
same,protection against lethal airway challenge,[2]; 0.1 mgKg^-1,Complete protection
same,effect on growth of C. albicans in YCB/BSA,[10]; YCB/BSA,blocked growth
same,A660 nm,"[10]; YCB/BSA, 168 hours in culture, 10 μM (no compound 3.13)",0.26

# From US5833946A, “Dissemination of fungal infections: animal model and method of prophylaxis” (priority 1995, dated 1998)
